Read-outs that look alike come from different tables or passages of the source.
How the values were obtained:
PDAC organoids = conditions: Shinkawa T et al, 2022; cited from earlier work
CFPAC1 cells = conditions: Raghavan et al., 2021; cited from earlier work
[1] = system: docetaxel resistant DU145 cells; test: WST-1 cell viability, docetaxel-resistant DU145 cells; assay type: cell-based; conditions: for IC50: docetaxel resistant DU145 cells, 72-hour drug exposure, WST-1, read-out: mean half maximal inhibitory concentration (IC50)
Protocol: A DU145 prostate cancer cell line was obtained from American Type Culture […] (ATCC) and cultured in RPMI 1640 medium (Thermo Fisher Scientific), supplemented with 10% fetal bovine serum (FBS) (Gibco, Thermo Fisher Scientific) and maintained at 37° C. with 5% CO2. A docetaxel-resistant cell line model for DU145 was established by chronically exposing the parent cell line to stepwise increasing concentrations of docetaxel as previously described(41,42). Both cell lines were periodically monitored for mycoplasma using the Universal Mycoplasma Detection Kit following the manufacturer's protocol (A TCC). In vitro drug screening in both the docetaxei-resistant and control DU145 nodels was performed using either vemurafenib (PLX4032; CAS No. 918504-65-1) or docetaxel (RP-56976; CAS No. 114977-28-5) obtained from MedChem Express (Monmriouth Junction NJ, USA) dissolved in dimethylsulfoxide (DMSO) to obtain stock concentrations of 100 mM for vemurafenib or 5 mM for docetaxel.
(§1) Docetaxel-resistant and control DU145 cells were trypsinized, harvested, counterstained with Hoechst 33342 Fluorescent Stain (Thermo Scientific, Pierce Biotechnology, Rockford, IL) and resuspended in full growth media to 5×10^4 cells per mL prior to plating in 96-well microplates (Thermo Scientific) using a seeding density of 5×10^3 cells per well and allowed to attach for 24 hours. Following incubation, cells were treated with different concentrations of either docetaxel ranging from 0.92 nM to 6 uM, or vemurafenib ranging from 2.5 uM to 50 uM. Cell viability for each well was measured following a 72-hour drug exposure using the WST-1 assay [(Roche Applied. Science, Penzberg, Upper Bavaria, Germany) following the manufacturer's protocol. Absorbance at the 450 nm wavelength was assessed using the Synergy HTX Multi-Mode Plate Reader (BioTek, Winooski, VT)]. Absorbance values for each well were used to calculate percent viability relative to the no drug condition. […]

mesoderm-like cells = conditions: RMS oPDX, Patel et al., 2022; cited from earlier work
[2] = system: docetaxel sensitive DU145 cells; test: WST-1 cell viability, docetaxel-sensitive (control) DU145 cells; assay type: cell-based; conditions: Homo sapiens, DU-145, 72-hour drug exposure
Protocol: A DU145 prostate cancer cell line was obtained from American Type Culture […] (ATCC) and cultured in RPMI 1640 medium (Thermo Fisher Scientific), supplemented with 10% fetal bovine serum (FBS) (Gibco, Thermo Fisher Scientific) and maintained at 37° C. with 5% CO2. A docetaxel-resistant cell line model for DU145 was established by chronically exposing the parent cell line to stepwise increasing concentrations of docetaxel as previously described(41,42). Both cell lines were periodically monitored for mycoplasma using the Universal Mycoplasma Detection Kit following the manufacturer's protocol (A TCC). […]
as §1, with “Following incubation, cells were treated with different concentrations of either docetaxel ranging from 0.92 nM to 6 uM, or vemurafenib ranging from 2.5 uM to 50 uM.” left out, “VT)].” for “VT)]. Absorbance values for each well were used to calculate percent viability relative to the no drug condition.”

[3] = patients, cited from earlier work

Structure (SMILES): Nc1ccn([C@@H]2O[C@H](CO)[C@@H](O)C2(F)F)c(=O)n1 [Gemcitabine]
- response of basal-like vs classical-like PDAC organoids (PDAC organoids): higher resistance

Structure (SMILES): CC(=O)O[C@H]1C(=O)[C@@]2(C)[C@H]([C@H](OC(=O)c3ccccc3)[C@]3(O)C[C@H](OC(=O)[C@H](O)[C@@H](NC(=O)c4ccccc4)c4ccccc4)C(C)=C1C3(C)C)[C@]1(OC(C)=O)CO[C@@H]1C[C@@H]2O [Paclitaxel]
- response of CFPAC1 cells grown in complete classical organoid media (CFPAC1 cells): responsive

Structure (SMILES): CCc1c2c(nc3ccc(O)cc13)-c1cc3c(c(=O)n1C2)COC(=O)[C@]3(O)CC [SN-38]
- response of CFPAC1 cells grown in complete classical organoid media (CFPAC1 cells): responsive

Structure (SMILES): CC(=O)O[C@@]12CO[C@@H]1C[C@H](O)[C@@]1(C)C(=O)[C@H](O)C3=C(C)[C@@H](OC(=O)[C@H](O)[C@@H](NC(=O)OC(C)(C)C)c4ccccc4)C[C@@](O)([C@@H](OC(=O)c4ccccc4)[C@H]21)C3(C)C [docetaxel]
- percent viability, resistant vs sensitive DU145 cells ([1]; docetaxel exposure, FIG. 9, two-way ANOVA): higher resistance

Structure (SMILES): CCc1c2c(nc3ccc(OC(=O)N4CCC(N5CCCCC5)CC4)cc13)-c1cc3c(c(=O)n1C2)COC(=O)[C@]3(O)CC [irinotecan]
- response of mesoderm-like cells compared to myoblast cells (mesoderm-like cells): highly resistant

Structure (SMILES): CCCS(=O)(=O)Nc1ccc(F)c(C(=O)c2c[nH]c3ncc(-c4ccc(Cl)cc4)cc23)c1F [vemurafenib]
- IC50 [2]: 27.9 µM
- average maximum serum concentration (Cmax) ([3]; previous trial (Zhang W et al., 2017)): 61.4 µg/mL
- average maximum serum concentration (Cmax) ([3]; previous trial, equivalent of 61.4 μg/mL): 125.3 μM/L
- tolerability at Cmax ([3]; previous trial): well tolerated
- IC50 ([1]; Homo sapiens, DU-145, 72 h): 12.8 µM
- IC50 [1]: 12.9 µM

— patent publication US20250066840A1, “Single-cell RNA sequencing analysis pipeline for predicting cell sensitivities to various drugs” (Regents of the University of Minnesota, priority 2023, published 2025)
